Results as given in patent US6664231B1, “Anti-fungal peptides” (priority 1993, dated 2003).
Square brackets hold non-standard residues; d marks the D form. Ends that are not written are not given here. pGlu = O=C1CC[C@@H](C(=O)O)N1

Tested on: C. albicans (CA-1, Strain SLU-1)
Experiment: Radial diffusion assay
Format: cell-based, Candida albicans
Conditions: for C. albicans pmol/30 mm^2 zone: pmoles of peptide added to well to achieve a 30 mm^2 zone, PROBIT analysis, crude or purified (P′) peptide; for Plate Assay (nmol), crude peptide activity / Plate Assay (nmol), pure peptide activity: nanomoles required to achieve a net 30 mm^2 zone (log titration curve); for Plate Assay (nmol), pure peptide activity: HPLC-purified peptide
Method in brief: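 Peptides, serially diluted 2-fold in D-PBS (top ~1 mg/mL), diffused 3 h at 37° C into pH 7.4 phosphate-buffered agarose seeded with 1×10^6 CFU/mL yeast, before overnight growth under a 6% Sabouraud overlayer. Net inhibition zones measured after Coomassie staining; PROBIT fit of log pmol vs area gave pmol for 30 mm^2.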

H-KSKVGWLIQLFHKKKSKVGWLIQLFHKK-NH2 [XMP.29]
C. albicans pmol/30 mm^2 zone: >1469 pmol/30 mm^2 zone

H-KSKVGWLIQLFHKW-NH2 [XMP.108]
C. albicans pmol/30 mm^2 zone: >3219 pmol/30 mm^2 zone

H-KSKVGWLIQLFLKK-NH2 [XMP.87]
C. albicans pmol/30 mm^2 zone: >1536 pmol/30 mm^2 zone

H-KSKVGWLIQLFWKK-NH2 [XMP.107]
C. albicans pmol/30 mm^2 zone: >2796 pmol/30 mm^2 zone

H-KSKVGWLIQLWHKK-NH2 [XMP.82]
C. albicans pmol/30 mm^2 zone: 518 pmol/30 mm^2 zone

H-KSKVGWLIRLFHKK-NH2 [XMP.265]
C. albicans pmol/30 mm^2 zone: 2,996 pmol/30 mm^2 zone

H-KSKVGWLISLFHKK-NH2 [XMP.104]
C. albicans pmol/30 mm^2 zone: >5569 pmol/30 mm^2 zone

H-KSKVGWLITLFHKK-NH2 [XMP.106]
C. albicans pmol/30 mm^2 zone: 1032 pmol/30 mm^2 zone

H-KSKVGWLIYLFHKK-NH2 [XMP.125]
C. albicans pmol/30 mm^2 zone: >3150 pmol/30 mm^2 zone

H-KSKVKALIQLFHKK-NH2 [XMP.161]
C. albicans pmol/30 mm^2 zone: >2999 pmol/30 mm^2 zone

H-KSKVKFLIKLFHKK-NH2 [XMP.283]
C. albicans pmol/30 mm^2 zone: 1,336 pmol/30 mm^2 zone

H-KSKVKVAIQLFHKK-NH2 [XMP.269]
C. albicans pmol/30 mm^2 zone: 635 pmol/30 mm^2 zone

H-KSKVKVLIQLFHKK-NH2 [XMP.266]
C. albicans pmol/30 mm^2 zone: 984 pmol/30 mm^2 zone

H-KSKVKWAIQLFHKK-NH2 [XMP.267]
C. albicans pmol/30 mm^2 zone: 256 pmol/30 mm^2 zone
C. albicans pmol/30 mm^2 zone (listed as XMP.267P′): 106 pmol/30 mm^2 zone

H-KSKVKWLIKLFFKFKSKVKWLIKLFFKF-NH2 [XMP.101]
C. albicans pmol/30 mm^2 zone: >1040 pmol/30 mm^2 zone

H-KSKVKWLIKLFHKK-NH2 [XMP.100]
C. albicans pmol/30 mm^2 zone: 462 pmol/30 mm^2 zone

H-KSKVKWLIQLWHKK-NH2 [XMP.124]
C. albicans pmol/30 mm^2 zone: 351 pmol/30 mm^2 zone

H-KSKVLWLIQLFHKK-NH2 [XMP.85]
C. albicans pmol/30 mm^2 zone: >1881 pmol/30 mm^2 zone

H-KSKVWLIQLFHKK-NH2 [XMP.11]
C. albicans pmol/30 mm^2 zone: 645 pmol/30 mm^2 zone

H-KVKWLI-NH2 [XMP.313]
C. albicans pmol/30 mm^2 zone: >11,050 pmol/30 mm^2 zone

H-KVKWLI-NH2 [compound 313]
Plate Assay (nmol), crude peptide activity: >11.05 nmol

H-KVKWLIQ-NH2 [Peptide 306]
Plate Assay (nmol), crude peptide activity: >10.485 nmol

H-KVKWLIQ-NH2 [XMP.306]
C. albicans pmol/30 mm^2 zone: >10,485 pmol/30 mm^2 zone

H-KVKWLIQL-NH2 [Peptide 300]
Plate Assay (nmol), pure peptide activity: 0.993 nmol
Plate Assay (nmol), crude peptide activity: 1.957 nmol

H-KVKWLIQL-NH2 [XMP.300]
C. albicans pmol/30 mm^2 zone: 1,957 pmol/30 mm^2 zone
C. albicans pmol/30 mm^2 zone (listed as XMP.300P′): 993 pmol/30 mm^2 zone

H-KVKWLIQLF-NH2 [Peptide 295]
Plate Assay (nmol), pure peptide activity: >2.612 nmol
Plate Assay (nmol), crude peptide activity: >1.977 nmol

H-KVKWLIQLF-NH2 [XMP.295]
C. albicans pmol/30 mm^2 zone: >1,977 pmol/30 mm^2 zone
C. albicans pmol/30 mm^2 zone (listed as XMP.295P′): >2,612 pmol/30 mm^2 zone

H-KVKWLIQLFH-NH2 [Peptide 291]
Plate Assay (nmol), crude peptide activity: >5.039 nmol

H-KVKWLIQLFH-NH2 [XMP.291]
C. albicans pmol/30 mm^2 zone: >5,039 pmol/30 mm^2 zone

H-KVKWLIQLFHK-NH2 [Peptide 288]
Plate Assay (nmol), pure peptide activity: 0.279 nmol
Plate Assay (nmol), crude peptide activity: 3.639 nmol

H-KVKWLIQLFHK-NH2 [XMP.288]
C. albicans pmol/30 mm^2 zone: >3,062 pmol/30 mm^2 zone
C. albicans pmol/30 mm^2 zone (listed as XMP.288P′): 279 pmol/30 mm^2 zone

H-KWLIQL-NH2 [XMP.315]
C. albicans pmol/30 mm^2 zone: >5,069 pmol/30 mm^2 zone
C. albicans pmol/30 mm^2 zone (listed as XMP.315P′): >12,853 pmol/30 mm^2 zone

H-KWLIQL-NH2 [compound 315]
Plate Assay (nmol), pure peptide activity: >12.853 nmol
Plate Assay (nmol), crude peptide activity: >5.069 nmol

H-KWLIQLF-NH2 [XMP.308]
C. albicans pmol/30 mm^2 zone: b (No detectable activity up to 5 μg/well)

H-KWLIQLFH-NH2 [Peptide 302]
Plate Assay (nmol), pure peptide activity: 2.07 nmol
Plate Assay (nmol), crude peptide activity: >5.497 nmol

H-KWLIQLFH-NH2 [XMP.302]
C. albicans pmol/30 mm^2 zone: >5,497 pmol/30 mm^2 zone
C. albicans pmol/30 mm^2 zone (listed as XMP.302P′): 2,070 pmol/30 mm^2 zone

H-LIQLFH-NH2 [XMP.317]
C. albicans pmol/30 mm^2 zone: b (No detectable activity up to 5 μg/well)

H-LIQLFHK-NH2 [Peptide 310]
Plate Assay (nmol), crude peptide activity: >9.475 nmol

H-LIQLFHK-NH2 [XMP.310]
C. albicans pmol/30 mm^2 zone: >9,475 pmol/30 mm^2 zone

H-LIQLFHKK-NH2 [Peptide 304]
Plate Assay (nmol), crude peptide activity: >8.290 nmol

H-LIQLFHKK-NH2 [XMP.304]
C. albicans pmol/30 mm^2 zone: >8,290 pmol/30 mm^2 zone

H-QLFHKK-NH2 [XMP.319]
C. albicans pmol/30 mm^2 zone: b (No detectable activity up to 5 μg/well)

H-RRWLIQLRR-NH2 [XMP.336]
C. albicans pmol/30 mm^2 zone: >7,332 pmol/30 mm^2 zone
C. albicans pmol/30 mm^2 zone (listed as XMP.336P′): h (inactive to 5,268 pmol)

H-SKVKWL-NH2 [Peptide 312]
Plate Assay (nmol), crude peptide activity: >11.20 nmol

H-SKVKWL-NH2 [XMP.312]
C. albicans pmol/30 mm^2 zone: >11,120 pmol/30 mm^2 zone

H-SKVKWLI-NH2 [Peptide 305]
Plate Assay (nmol), crude peptide activity: >10.228 nmol

H-SKVKWLI-NH2 [XMP.305]
C. albicans pmol/30 mm^2 zone: >10,228 pmol/30 mm^2 zone

H-SKVKWLIQ-NH2 [Peptide 299]
Plate Assay (nmol), crude peptide activity: >8.768 nmol

H-SKVKWLIQ-NH2 [XMP.299]
C. albicans pmol/30 mm^2 zone: >8,768 pmol/30 mm^2 zone

H-SKVKWLIQL-NH2 [Peptide 294]
Plate Assay (nmol), crude peptide activity: >4.634 nmol

H-SKVKWLIQL-NH2 [XMP.294]
C. albicans pmol/30 mm^2 zone: >4,634 pmol/30 mm^2 zone

H-SKVKWLIQLF-NH2 [Peptide 290]
Plate Assay (nmol), crude peptide activity: >2.233 nmol

H-SKVKWLIQLF-NH2 [XMP.290]
C. albicans pmol/30 mm^2 zone: >2,233 pmol/30 mm^2 zone

H-SKVKWLIQLFH-NH2 [Peptide 287]
Plate Assay (nmol), crude peptide activity: >3.509 nmol

H-SKVKWLIQLFH-NH2 [XMP.287]
C. albicans pmol/30 mm^2 zone: >3,509 pmol/30 mm^2 zone

H-SKVKWLIQLFHK-NH2 [Peptide 285]
Plate Assay (nmol), crude peptide activity: >3.024 nmol

H-SKVKWLIQLFHK-NH2 [XMP.285]
C. albicans pmol/30 mm^2 zone: >3,024 pmol/30 mm^2 zone

H-SKVKWLIQLFHKK-NH2 [Peptide 284]
Plate Assay (nmol), pure peptide activity: 0.373 nmol
Plate Assay (nmol), crude peptide activity: 1.460 nmol

H-SVHVHISKSKVGWLIQLFHKKIESALRNK-NH2 [XMP.12]
C. albicans pmol/30 mm^2 zone: >2099 pmol/30 mm^2 zone

H-VKWLIQ-NH2 [XMP.314]
C. albicans pmol/30 mm^2 zone: >13,497 pmol/30 mm^2 zone

H-VKWLIQ-NH2 [compound 314]
Plate Assay (nmol), crude peptide activity: 13.497 nmol

H-VKWLIQL-NH2 [Peptide 307]
Plate Assay (nmol), crude peptide activity: >8.345 nmol

H-VKWLIQL-NH2 [XMP.307]
C. albicans pmol/30 mm^2 zone: >8,345 pmol/30 mm^2 zone

H-VKWLIQLF-NH2 [XMP.301]
C. albicans pmol/30 mm^2 zone: b (No detectable activity up to 5 μg/well)

H-VKWLIQLFH-NH2 [Peptide 296]
Plate Assay (nmol), crude peptide activity: >5.573 nmol

H-VKWLIQLFH-NH2 [XMP.296]
C. albicans pmol/30 mm^2 zone: >5,573 pmol/30 mm^2 zone

H-VKWLIQLFHK-NH2 [Peptide 292]
Plate Assay (nmol), crude peptide activity: >4.063 nmol

H-VKWLIQLFHK-NH2 [XMP.292]
C. albicans pmol/30 mm^2 zone: >4,463 pmol/30 mm^2 zone

H-VKWLIQLFHKK-NH2 [Peptide 289]
Plate Assay (nmol), pure peptide activity: 0.68 nmol
Plate Assay (nmol), crude peptide activity: 1.542 nmol

H-VKWLIQLFHKK-NH2 [XMP.289]
C. albicans pmol/30 mm^2 zone: 1,542 pmol/30 mm^2 zone
C. albicans pmol/30 mm^2 zone (listed as XMP.289P′): 658 pmol/30 mm^2 zone

H-WLIQL-NH2 [XMP.320]
C. albicans pmol/30 mm^2 zone: >4,055 pmol/30 mm^2 zone

H-WLIQLF-NH2 [XMP.316]
C. albicans pmol/30 mm^2 zone: b (No detectable activity up to 5 μg/well)
C. albicans pmol/30 mm^2 zone (listed as XMP.316P′): g (inactive to 7,194 pmol)

H-WLIQLF-NH2 [compound 316]
Plate Assay (nmol), pure peptide activity: inactive
Plate Assay (nmol), crude peptide activity: 11.1 nmol

H-WLIQLFH-NH2 [XMP.309]
C. albicans pmol/30 mm^2 zone: b (No detectable activity up to 5 μg/well)

H-WLIQLK-NH2 [XMP.321]
C. albicans pmol/30 mm^2 zone: >5,851 pmol/30 mm^2 zone

H-WLIQLKK-NH2 [XMP.322]
C. albicans pmol/30 mm^2 zone: 3,488 pmol/30 mm^2 zone

KKVLIQLKK-NH2 [XMP.343]
C. albicans pmol/30 mm^2 zone: 245 pmol/30 mm^2 zone

XMP.137: C-148-161-C (SEQ ID NO:56) (CKSKVGWLIQLFHKKC)
C. albicans pmol/30 mm^2 zone: >2286 pmol/30 mm^2 zone

XMP.341: PYR - PYR - 153-157 - PYR - PYR (SEQ ID NO:172) ([pGlu][pGlu]WLIQL[pGlu][pGlu]; not fully specified; printed as PYR - PYR - 153-157 - PYR - PYR)
C. albicans pmol/30 mm^2 zone: b (No detectable activity up to 5 μg/well)

XMP.359: CD - 153-161 (SEQ ID NO:190) ([dC]WLIQLFHKK)
C. albicans pmol/30 mm^2 zone: b (No detectable activity up to 5 μg/well)

XMP.380: K - K - Q - L - L - L - L - K - K (SEQ ID NO:211) (KKQLLLLKK)
C. albicans pmol/30 mm^2 zone: 886 pmol/30 mm^2 zone
